“Also recorded” adds a separate entry of the source.

This is an account of results in patent publication US20160310448A1, “Adamantane or Pinene Derivatives for Use in the Treatment of Chlamydiales Infections” (Commissariat a l'Energie Atomique et aux Energies …, priority 2015, published 2016).

Holding throughout (type): cell-based
Experiment [1] concerns Chlamydia trachomatis (Ctr) strain L2/434/Bu. Kind of experiment: microbe, parasite or virus in culture. The settings on record: for protection against Ctr progeny infection at 25 μM (in words) / protection against Ctr progeny infection at 75 μM (in words): HeLa229; for protection against Ctr progeny infection at 25 μM (in words): Table 1; for protection against Ctr progeny infection at 75 μM (in words): FIG. 7 and Table 1; for inhibition at 25 µM / inhibition at 75 µM: Chlamydia trachomatis, HeLa 229, progeny infection, HeLa229, MOI1, versus solvent-treated cells; for inhibition at 25 µM: read-out: Cellular protection at 25 μM; for inhibition at 75 µM: read-out: Cellular protection at 75 μM. The method, then: HeLa229 (ATCC CCL-2.1). Cells were grown in RPMI1640 medium (Glutamax, 10% FBS, w/o HEPES) (Invitrogen).
(§1) Chlamydia trachomatis (Ctr). Laboratory-adapted strain L2/434/Bu (ATCC VR902B) was used in assays. Full biological and genetic information is available for this strain including complete genome sequence and defined proteome. This strain has a relatively low particle to infectivity ratio, perform efficient cell infection and has a higher viability than standard genital tract isolates with faster developmental cycle. Culture conditions have been described in (Wang Y., Kahane S., Cutcliffe L. T., Skilton R. J., Lambden P. R., Clarke I. N. Development of a transformation system for Chlamydia trachomatis: Restoration of glycogen biosynthesis by acquisition of a plasmid shuttle vector. PLoS Pathogen, 2011, 7(9):e1002258. doi: 10.1371/journal.ppat.1002258).
Compound application during Chlamydia trachomatis infection. HeLa229 cells were pretreated with compound #20 and its derivatives in concentrations of 25 μM and 75 μM for 1 hour until Chlamydia trachomatis (MOI1) were added to the cells. Compounds were present during infection. To obtain progeny infection, compound treated cells were lysed 24 h post infection (hpi) and lysate was used to infect fresh HeLa 229 cells.
Infected cells of progeny infection were fixed with 4% Paraformaldehyde 48 hpi. Cells were stained for DAPI and Chlamydia trachomatis were detected by GFP-signal. Images are representative of n=2 independent experiments. Quantification of infected cells by Chlamydia trachomatis was realized from microscopy images with Image J software (FIG. 7) and cellular protection by compounds at 25 μM and 75 μM was then determined (Table 1) by comparison with solvent-treated cells (control) with the following equation: […]

The subject of experiment [2] is Simkania negevensis (Sn) strain Z. The experiment in a line: Sn infectivity assays (primary and progeny infection) in HeLa229 cells. The method, then: Simkania negevensis (Sn) strain Z (ATCC VR-1471) was prepared as described previously (Mehlitz A, Karunakaran K, Herweg J A, Krohne G, van de Linde S, Rieck E, Sauer M, Rudel T. The chlamydial organism Sn forms ER vacuole contact sites and inhibits ER-stress. Cell Microbiol 2014; 16(8):1224-1243).
Briefly, HeLa229 cells were grown to 50-70% confluence, were inoculated with Sn in RPMI1640 with 5% FBS, for 6 h at 35° C. in a humidified incubator at 5% CO2. Medium was replaced by infection medium (RPMI1640, Glutamax, 5% FBS, w/o HEPES) and growth was allowed for 3 days. Cells were mechanically detached and bacteria were released using ˜2-5 mm glass beads (Carl Roth). Low speed supernatant (600×g, 4° C. and 5 min) was subjected to high-speed centrifugation (20,000×g, 4° C. and 30 min) to pellet bacteria. Bacteria were washed twice with 5 ml SPG (250 mM sucrose, 50 mM sodium phosphate, 5 mM glutamate, pH 7.4), aliquoted and stored at '80° C. in SPG.
40,000 HeLa cells were seeded in 12-well cluster plates, inhibitor-treated and infected as indicated in the respective experiment.
For infectivity assays cells were either fixed and stained at indicated time points (FIGS. 2,4; inclusion formation/primary infection) or bacteria were released via one freeze thaw cycle (−70° C./37° C.) followed by mechanical release through pipetting and transfer to fresh HeLa229 cells (1:25-1:50, progeny/infectivity). Cells were centrifuged for 1 h at 35° C. and medium exchanged to infection medium. Progeny was fixed at day 3 post infection and processed for staining (FIG. 3) or harvested for immunoblotting (FIG. 1). Infectivity assays were imaged on an automated fluorescence microscope Leica DMIR (FIG. 4). Numbers and average sizes of the SCV as well as host cell numbers were determined via GroEL and DAPI staining and images were analysed and quantified using FIJI (ImageJ) and Excel (Microsoft).
In this progeny assay, bacteria are first grown in Hela299 cells treated with inhibitors (compound 20 at a concentration of 50 and 75 μM) and the infectious particles from this primary infection are applied to fresh cells in the absence of inhibitor to measure the bacterial load (GroEL immunoblot) and inclusion formation (immunofluorescence microscopy).

Experiment [3] deals with Chlamydia trachomatis (Ctr) strain L2/434/Bu. The experiment in a line: Chlamydia trachomatis (Ctr) infectivity assay, HSP60 immunoblot of primary and progeny infection in HeLa229 cells.
From the text: as §1
Compound application during Ctr infection. HeLa229 cells were pretreated with compound 20 in concentrations of 25, 50 and 75 μM for 30 min until Ctr (MOI1) were added to the cells. Compound 20 was present during infection.
Cells with primary infection were lysed 24 h post infection (hpi). To obtain progeny infection compound treated cells were lysed 48 hpi and lysate was used to infect fresh HeLa229 cells. Progeny infection was lysed 24 hpi and analyzed together with primary infection samples by immunoblot. Chlamydial growth was detected with antibodies against chlamydial HSP60 protein and Actin was used as loading control (FIG. 6).
On the technique in general: In western blotting, separated proteins are transferred to a membrane and probed.

For the molecule `O=C(CC12CC3CC(CC(C3)C1)C2)N/N=C/c1ccc([N+](=O)[O-])o1` [m9, 2-((3R,5R,7R)-adamantan-1-yl)-N′-((E)-(5-nitrofuran-2-yl)methylene)acetohydrazide], in experiment [1], the “protection against Ctr progeny infection at 25 μM (in words)” value (shortened to “protection … at 25 μM (in words)”) is on record as “full protection”, the “protection against Ctr progeny infection at 75 μM (in words)” value (from here on “protection … at 75 μM (in words)”) is “full protection”, the inhibition at 25 µM turned out to be 100% and the inhibition at 75 µM stood at 100%.
For the molecule `O=C(N/N=C/c1cccc([N+](=O)[O-])c1)NC12CC3CC(CC(C3)C1)C2` [m4, N-((3S,5S,7S)-adamantan-1-yl)-2-((E)-3-nitrobenzylidene)hydrazine-1-carboxamide], in experiment [1], the inhibition at 25 µM turned out to be 22.8% and the inhibition at 75 µM was found to be 81.6%.
In the case of `C[C@@H]1[C@@H](NCc2ccc(I)cc2)C[C@H]2C[C@@H]1C2(C)C` [VP390, (1S,2S,3S,5R)-N-(4-iodobenzyl)-2,6,6-trimethylbicyclo[3.1.1]heptan-3-amine], in experiment [1], the “protection … at 75 μM (in words)” value is reported as “full protection”, the inhibition at 25 µM was 91.8% and the inhibition at 75 µM turned out to be 100%.
Take `COc1ccc(I)cc1CN[C@H]1C[C@H]2C[C@@H]([C@@H]1C)C2(C)C` [VP386, (1S,2S,3S,5R)-N-(5-iodo-2-methoxybenzyl)-2,6,6-trimethylbicyclo[3.1.1]heptan-3-amine]: in experiment [1], the “protection … at 25 μM (in words)” value was “full protection”, the “protection … at 75 μM (in words)” value is “full protection”, the inhibition at 25 µM was determined as 100% and the inhibition at 75 µM is 100%.
On to `O=C(Nc1ccc(S(=O)(=O)Nc2nccs2)cc1)C12CC3CC(CC(C3)C1)C2` [m3, (3R,5R,7R)-N-(4-(N-(thiazol-2-yl)sulfamoyl)phenyl)adamantane-1-carboxamide], for which, in experiment [1], the inhibition at 25 µM was found to be 46.9% and the inhibition at 75 µM turned out to be 87.8%.
`COc1ccc(Br)cc1CNC12CC3CC(CC(C3)C1)C2` [Compound 20, (3S,5S,7S)-N-(5-bromo-2-methoxybenzyl)adamantan-1-amine]: the “effect on Sn progeny infection” value in experiment [2] (HeLa cells, 50 and 75 μM, GroEL immunoblot, relative inclusion number) is on record as “inhibitor effect; also recorded: inhibits”. In addition, in experiment [2] (HeLa cells, 50 and 75 μM, relative inclusion size, fluorescence microscopy), the “effect on Sn primary infection” value is given as “inhibitor effect; also recorded: inhibits”. Moreover, the “concentration of maximal inhibition of Sn replication” value in experiment [2] (HeLa cells, FIGS. 1, 2, 3 and 4) amounted to 75 µM. The “subcellular structure of Sn inclusions by transmission electron microscopy” value in experiment [2] (infected HeLa cells, versus DMSO-treated control) is “dramatically smaller and less sub-vacuoles and just few bacteria; also recorded: the number of Sn inclusions is reduced and the vacuole size is much reduced”. Besides, the “effect on Ctr progeny infection at 50 μM” value in experiment [3] (50 μM, HSP60 immunoblot) is recorded as “strongly reduced amounts of Ctr in the progeny”. For the same molecule, the “effect on Ctr progeny infection at 75 μM” value in experiment [3] (75 μM, HSP60 immunoblot) is reported as “totally blocked progeny infection”. Moreover, the “effect on chlamydial development (primary Ctr infection)” value in experiment [3] (25, 50 and 75 μM, HSP60 immunoblot 24 hpi) is listed as “slight inhibitory effect”. In addition, in experiment [1], the inhibition at 25 µM is 19.9% and the inhibition at 75 µM stood at 75.7%.
`COc1ccc(Br)cc1CNC12CC3CC(C)(CC(C)(C3)C1)C2` [RN-2-103, (1R,3R,5S,7R)-N-(5-bromo-2-methoxybenzyl)-3,5-dimethyladamantan-1-amine]: in experiment [1], the “protection … at 75 μM (in words)” value is “full protection”, the inhibition at 25 µM was 66.9% and the inhibition at 75 µM came to 100%.
As to `COc1ccc(Br)cc1CN[C@H]1C[C@H]2C[C@@H]([C@@H]1C)C2(C)C` [VP332, (1S,2S,3S,5R)-N-(5-bromo-2-methoxybenzyl)-2,6,6-trimethylbicyclo[3.1.1]heptan-3-amine], in experiment [1], the “protection … at 25 μM (in words)” value was “full protection”, the “protection … at 75 μM (in words)” value is reported as “full protection”, the inhibition at 25 µM was found to be 100% and the inhibition at 75 µM came out at 100%.
